Laboratory results taken from PubChem BioAssay AID1963832 (Molecular Pharmacology Branch, DTP, NCI, 2024).

System: 885724-159-R-J1-PDC complex spheroid viability
Test: Anticancer human tumor 885724-159-R-J1-PDC patient-derived pancreatic adenocarcinoma cell line growth inhibition [POLQ]
Settings: for IC50: curve of first compound; for viability, T/C: stronger effect = lower value
Procedure, shortened: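 Three-cell-type spheroids modelling solid tumor plus stroma served as the readout system; POL inhibitors were tested individually and in combination, concentration ranges set by clinical Cmax where known.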

[1] = second compound 0.0316 µM, first compound 0.0316 µM
[2] = second compound 0.0316 µM, first compound 0.1 µM
[3] = second compound 0.0316 µM, first compound 0.316 µM
[4] = second compound 0.0316 µM, first compound 1 µM
[5] = second compound 0.0316 µM, first compound 3.16 µM
[6] = second compound 0.0316 µM, first compound 10 µM
[7] = second compound 0.1 µM, first compound 0.0316 µM
[8] = second compound 0.1 µM, first compound 0.1 µM
[9] = second compound 0.1 µM, first compound 0.316 µM
[10] = second compound 0.1 µM, first compound 1 µM
[11] = second compound 0.1 µM, first compound 3.16 µM
[12] = second compound 0.1 µM, first compound 10 µM
[13] = second compound 0.316 µM, first compound 0.0316 µM
[14] = second compound 0.316 µM, first compound 0.1 µM
[15] = second compound 0.316 µM, first compound 0.316 µM
[16] = second compound 0.316 µM, first compound 1 µM
[17] = second compound 0.316 µM, first compound 3.16 µM
[18] = second compound 0.316 µM, first compound 10 µM
[19] = second compound 1 µM, first compound 0.0316 µM
[20] = second compound 1 µM, first compound 0.1 µM
[21] = second compound 1 µM, first compound 0.316 µM
[22] = second compound 1 µM, first compound 1 µM
[23] = second compound 1 µM, first compound 3.16 µM
[24] = second compound 1 µM, first compound 10 µM
[25] = second compound 3.16 µM, first compound 0.0316 µM
[26] = second compound 3.16 µM, first compound 0.1 µM
[27] = second compound 3.16 µM, first compound 0.316 µM
[28] = second compound 3.16 µM, first compound 1 µM
[29] = second compound 3.16 µM, first compound 3.16 µM
[30] = second compound 3.16 µM, first compound 10 µM
[31] = second compound 10 µM, first compound 0.0316 µM
[32] = second compound 10 µM, first compound 0.1 µM
[33] = second compound 10 µM, first compound 0.316 µM
[34] = second compound 10 µM, first compound 1 µM
[35] = second compound 10 µM, first compound 3.16 µM
[36] = second compound 10 µM, first compound 10 µM
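Note: spheroids exposed to compounds for 7 days.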

For `CC(C)n1c(=O)n(C)c2cnc3cc(F)c(-c4ccc(OCCCN5CCCCC5)nc4)cc3c21` + Cc1cccc(N(C)C(=O)C2C(O)CCN2c2nc(C)cc(C(F)(F)F)c2C#N)c1, the IC50 (second compound 0.0316 µM) was greater than 10 µM, the IC50 (second compound 0.1 µM) was greater than 10 µM and the IC50 (second compound 0.316 µM) was greater than 10 µM. The IC50 (second compound 1 µM) was greater than 10 µM, the IC50 (second compound 3.16 µM) was greater than 10 µM and the IC50 (second compound 10 µM) was greater than 10 µM. The viability, T/C [1] was 104%, the viability, T/C [2] was 104% and the viability, T/C [3] was 99.9%. It also gave a viability, T/C [4] of 97.8%, a viability, T/C [5] of 93.9% and a viability, T/C [6] of 68.8%. The viability, T/C [7] was 108%, the viability, T/C [8] was 95.8% and the viability, T/C [9] was 109%. For the same compound, the viability, T/C [10] was 91.2%, the viability, T/C [11] was 96.8% and the viability, T/C [12] was 72.2%. It also gave a viability, T/C [13] of 109%, a viability, T/C [14] of 102% and a viability, T/C [15] of 102%. The viability, T/C [16] was 98.8%, the viability, T/C [17] was 99.3% and the viability, T/C [18] was 66.6%. For the same compound, the viability, T/C [19] was 104%, the viability, T/C [20] was 100% and the viability, T/C [21] was 104%. It also gave a viability, T/C [22] of 116%, a viability, T/C [23] of 87.7% and a viability, T/C [24] of 60.2%. For the same compound, the viability, T/C [25] was 106%, the viability, T/C [26] was 112% and the viability, T/C [27] was 107%. For the same compound, the viability, T/C [28] was 102%, the viability, T/C [29] was 86.2% and the viability, T/C [30] was 61.3%. The viability, T/C [31] was 106%, the viability, T/C [32] was 95.4% and the viability, T/C [33] was 111%. For the same compound, the viability, T/C [34] was 101%, the viability, T/C [35] was 88.9% and the viability, T/C [36] was 60.7%.

`CC1COCCN1c1cc(-c2ccnn2C)c2ccnc(-c3ccn[nH]3)c2n1` (stereo unspecified) + Cc1cccc(N(C)C(=O)C2C(O)CCN2c2nc(C)cc(C(F)(F)F)c2C#N)c1 showed an IC50 (second compound 0.0316 µM) of 0.35 µM, an IC50 (second compound 0.1 µM) of 0.631 µM and an IC50 (second compound 0.316 µM) of 0.364 µM. The IC50 (second compound 1 µM) was 0.467 µM, the IC50 (second compound 3.16 µM) was 0.576 µM and the IC50 (second compound 10 µM) was 0.441 µM. The viability, T/C [1] was 85.6%, the viability, T/C [2] was 61.2% and the viability, T/C [3] was 52.3%. For the same compound, the viability, T/C [4] was 42.6%, the viability, T/C [5] was 45.5% and the viability, T/C [6] was 39%. The viability, T/C [7] was 87%, the viability, T/C [8] was 66.2% and the viability, T/C [9] was 54.2%. For the same compound, the viability, T/C [10] was 47.5%, the viability, T/C [11] was 44.7% and the viability, T/C [12] was 36.1%. It also gave a viability, T/C [13] of 89.3%, a viability, T/C [14] of 61.5% and a viability, T/C [15] of 51.5%. The viability, T/C [16] was 47.2%, the viability, T/C [17] was 40.6% and the viability, T/C [18] was 41.4%. It also gave a viability, T/C [19] of 82.9%, a viability, T/C [20] of 65.1% and a viability, T/C [21] of 50.2%. It also gave a viability, T/C [22] of 47.4%, a viability, T/C [23] of 41.9% and a viability, T/C [24] of 38.3%. It also gave a viability, T/C [25] of 77.8%, a viability, T/C [26] of 63.2% and a viability, T/C [27] of 51.9%. It also gave a viability, T/C [28] of 47%, a viability, T/C [29] of 46.5% and a viability, T/C [30] of 37.8%. The viability, T/C [31] was 86%, the viability, T/C [32] was 58.5% and the viability, T/C [33] was 50.4%. It also gave a viability, T/C [34] of 53.3%, a viability, T/C [35] of 49.6% and a viability, T/C [36] of 40.2%.

`CC1COCCN1c1cc(C2(S(C)(=N)=O)CC2)nc(-c2ccnc3[nH]ccc23)n1` (stereo unspecified) + Cc1cccc(N(C)C(=O)C2C(O)CCN2c2nc(C)cc(C(F)(F)F)c2C#N)c1 was tested, and the IC50 (second compound 0.0316 µM) was greater than 10 µM, the IC50 (second compound 0.1 µM) was greater than 10 µM and the IC50 (second compound 0.316 µM) was 9.04 µM. It also gave an IC50 (second compound 1 µM) of 5.33 µM, an IC50 (second compound 3.16 µM) greater than 10 µM and an IC50 (second compound 10 µM) greater than 10 µM. It also gave a viability, T/C [1] of 105%, a viability, T/C [2] of 97.3% and a viability, T/C [3] of 89%. For the same compound, the viability, T/C [4] was 72%, the viability, T/C [5] was 58% and the viability, T/C [6] was 51.7%. For the same compound, the viability, T/C [7] was 103%, the viability, T/C [8] was 94.1% and the viability, T/C [9] was 97.9%. The viability, T/C [10] was 65.4%, the viability, T/C [11] was 55.2% and the viability, T/C [12] was 53.8%. The viability, T/C [13] was 108%, the viability, T/C [14] was 102% and the viability, T/C [15] was 92.5%. For the same compound, the viability, T/C [16] was 72.9%, the viability, T/C [17] was 55.9% and the viability, T/C [18] was 49.7%. For the same compound, the viability, T/C [19] was 109%, the viability, T/C [20] was 93.6% and the viability, T/C [21] was 97%. It also gave a viability, T/C [22] of 71.8%, a viability, T/C [23] of 52.3% and a viability, T/C [24] of 47.2%. It also gave a viability, T/C [25] of 98.5%, a viability, T/C [26] of 95.6% and a viability, T/C [27] of 92.8%. The viability, T/C [28] was 73.8%, the viability, T/C [29] was 51.7% and the viability, T/C [30] was 51.3%. For the same compound, the viability, T/C [31] was 92.2%, the viability, T/C [32] was 97.2% and the viability, T/C [33] was 91.5%. The viability, T/C [34] was 68.2%, the viability, T/C [35] was 56.4% and the viability, T/C [36] was 50.4%.
